Test results as given in patent publication US20110237592A1, “SUBSTITUTED AMIDO PHENOXYBENZAMIDES” (BAYER SCHERING PHARMA AKTIENGESELLSCHAFT, priority 2008, published 2011).

Legend:
MEK1/2 = details: background statement, ref. [17]; cited from earlier work
colon cancer = details: oral treatment, mouse models, ref. [18]; cited from earlier work
MEK1 = target: T1, MEK1 (Homo sapiens, UniProt Q02750); test: MEK1 activation kinase assay (Cot1, HTRF); assay type: biochemical; details: inhibition of Cot1-mediated activation of GST-MEK1, HTRF
T1 construct: purchased Millipore 14-420
T1 sequence (Q02750 whole entry): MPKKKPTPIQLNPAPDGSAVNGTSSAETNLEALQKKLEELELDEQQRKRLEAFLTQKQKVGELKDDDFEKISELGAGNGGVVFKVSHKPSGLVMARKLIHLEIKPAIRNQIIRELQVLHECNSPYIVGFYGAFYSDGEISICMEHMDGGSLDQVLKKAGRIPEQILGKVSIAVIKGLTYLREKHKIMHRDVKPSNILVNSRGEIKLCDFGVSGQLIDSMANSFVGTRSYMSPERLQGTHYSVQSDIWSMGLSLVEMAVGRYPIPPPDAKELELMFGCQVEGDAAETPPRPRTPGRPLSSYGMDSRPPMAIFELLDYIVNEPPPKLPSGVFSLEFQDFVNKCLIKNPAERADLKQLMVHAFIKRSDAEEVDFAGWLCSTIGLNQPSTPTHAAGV
Source text: The kinase Cot1 activates MEK1 by phosphorylating its activation loop. The inhibitory activity of compounds of the present invention on this activation of MEK1 was quantified employing the HTRF assay described in the following paragraphs.
N-terminally His6-tagged recombinant kinase domain of the human Cot1 (amino acids 30-397, purchased from Millipore, cat. no 14-703) expressed in insect cells (SF21) and purified by Ni-NTA affinity chromatography was used as kinase. As substrate for the kinase reaction the unactive C-terminally His6-tagged GST-MEK1 fusion protein (Millipore cat. no 14-420) was used.
For the assay 50 nl of a 100 fold concentrated solution of the test compound in DMSO was pipetted into a black low volume 384 well microtiter plate (Greiner Bio-One, Frickenhausen, Germany), 3 μl of a solution of 24 nM GST-MEK1 and 166.7 μM adenosine-tri-phosphate (ATP) in assay buffer [50 mM Tris/HCl pH 7.5, 10 mM MgCl2, 2 mM dithiothreitol, 0.01% (v/v) Igepal CA 630 (Sigma), 5 mM β-phospho-glycerol] were added and the mixture was incubated for 10 min at 22° C. to allow pre-binding of the test compounds to the GST-MEK1 before the start of the kinase reaction. Then the kinase reaction was started by the addition of 2 μl of a solution of Cot1 in assay buffer and the resulting mixture was incubated for a reaction time of 20 min at 22° C. […]
The resulting mixture was incubated 2 h at 22° C. to allow the binding of the phosphorylated GST-MEK1 to the anti-GST-XL665 and the Eu-cryptate labelled anti-phospho-MEK 1/2 antibody. Subsequently the amount of Ser217/Ser221-phosphorylated substrate was evaluated by measurement of the resonance energy transfer from the Eu-Cryptate-labelled anti-phospho-MEK antibody to the anti-GST-XL665. Therefore, the fluorescence emissions at 620 nm and 665 nm after excitation at 350 nm was measured in a HTRF reader, e.g. a Rubystar (BMG Labtechnologies, Offenburg, Germany) or a Viewlux (Perkin-Elmer). […]

A375 cells = test: A375 proliferation crystal violet (CV) assay; assay type: cell-based; details: Homo sapiens, A-375, 96 h, crystal violet staining, 4 days
Description: Alternatively, the cell proliferation was measured by crystal violet (CV) staining: Assay 7
Cultivated human A375 cells were plated out in a density of 1500 cells/measurement point in 200 μl of growth medium (DMEM/HAMS F12 (Biochrom; FG4815) with 10% FBS and 2 mM Glutamine) in a 96-well multititer plate. After 24 hours, the cells from a plate (zero plate) were stained with crystal violet (see below), while the medium in the other plates was replaced by fresh culture medium (200 μl) to which the test substances had been added in various concentrations (0 μM, and in the range 0.3 nM-30 μM; the final concentration of the solvent dimethyl sulphoxide was 0.5%). The cells were incubated in the presence of the test substances for 4 days. The cell proliferation was determined by staining the cells with crystal violet: the cells were fixed by adding 20 μl/measurement point of an 11% glutaraldehyde solution at room temperature for 15 min. After the fixed cells had been washed three times with water, the plates were dried at room temperature. The cells were stained by adding 100 μl/measurement point of a 0.1% crystal violet solution (pH adjusted to pH 3 by adding acetic acid). After the stained cells had been washed three times with water, the plates were dried at room temperature. The dye was dissolved by adding 100 μl/measurement point of a 10% acetic acid solution, and the extinction was determined by photometry at a wavelength of 595 nm. The percentage change in cell growth was calculated by normalizing the measurements to the extinctions of the zero point plate (=0%) and the extinction of the untreated (0 μM) cells (=100%). The IC50 values were determined by means of a 4-parameter fit using the company's own software.

[1] = currently preferred example compounds

| SMILES | IC50 (A375 cells; [1]) | further results |
| --- | --- | --- |
| O=C(NOCC1CC1)c1ccc(F)c(F)c1Nc1ccc(I)cc1Cl [CI-1040] | – | IC50 (MEK1/2): low nanomolar range; colon cancer growth in vivo (colon cancer): inhibit colon cancer growth in vivo |
| CC(C)(O)C(=O)Nc1cccc(Oc2cc(F)cc(Nc3ccc(I)cc3F)c2C(N)=O)c1 [Example 1.1, 4-Fluoro-2-(2-fluoro-4-iodo-phenylamino)-6-[3-(2-hydroxy-2-methylpropionylamino)-phenoxy]-benzamide] | < 100 nM | IC50 (MEK1): < 100 nM; IC50 (A375 cells): < 1000 nM |
| NC(=O)c1c(Nc2ccc(I)cc2F)cc(F)cc1Oc1cccc(NC(=O)C2CCOCC2)c1 [Example 3.5, Tetrahydro-pyran-4-carboxylic acid {3-[2-carbamoyl-5-fluoro-3-(2-fluoro-4-iodo-phenylamino)-phenoxy]-phenyl}-amide] | < 100 nM | – |
| NC(=O)c1c(Nc2ccc(I)cc2F)cc(F)cc1Oc1cccc(NC(=O)CN2CCOCC2)c1 [Example 3.7, 4-Fluoro-2-(2-fluoro-4-iodo-phenylamino)-6-[3-(2-morpholin-4-yl-acetylamino)-phenoxy]-benzamide] | < 100 nM | – |
| CN1CCC(C(=O)Nc2cccc(Oc3cc(F)cc(Nc4ccc(I)cc4F)c3C(N)=O)c2)CC1 [Example 3.17, 1-Methyl-piperidine-4-carboxylic acid {3-[2-carbamoyl-5-fluoro-3-(2-fluoro-4-iodo-phenylamino)-phenoxy]-phenyl}-amide] | – | IC50 (MEK1): < 100 nM |
| NC(=O)c1c(Nc2ccc(I)cc2F)cc(F)cc1Oc1cccc(NC(=O)C(F)(F)F)c1 [Example 5.1, 4-Fluoro-2-(2-fluoro-4-iodo-phenylamino)-6-[3-(2,2,2-trifluoro-acetylamino)-phenoxy]-benzamide] | – | IC50 (A375 cells): < 1000 nM |

Second part, led by results:

| IC50 (A375 cells; [1]) | SMILES | further results |
| --- | --- | --- |
| < 100 nM | NC(=O)c1c(Nc2ccc(I)cc2F)cc(F)cc1Oc1cccc(NC(=O)CO)c1 [Example 3.1, 4-Fluoro-2-(2-fluoro-4-iodo-phenylamino)-6-[3-(2-hydroxy-acetylamino)-phenoxy]-benzamide] | – |
| < 100 nM | COCC(=O)Nc1cccc(Oc2cc(F)cc(Nc3ccc(I)cc3F)c2C(N)=O)c1 [Example 3.2, 4-Fluoro-2-(2-fluoro-4-iodo-phenylamino)-6-[3-(2-methoxy-acetylamino)-phenoxy]-benzamide] | – |
| < 100 nM | CSCC(=O)Nc1cccc(Oc2cc(F)cc(Nc3ccc(I)cc3F)c2C(N)=O)c1 [Example 3.3, 4-Fluoro-2-(2-fluoro-4-iodo-phenylamino)-6-[3-(2-methylsulfanyl-acetylamino)-phenoxy]-benzamide] | – |
| < 100 nM | CC(O)C(=O)Nc1cccc(Oc2cc(F)cc(Nc3ccc(I)cc3F)c2C(N)=O)c1 (stereo not drawn) [Example 3.6, 4-Fluoro-2-(2-fluoro-4-iodo-phenylamino)-6-[3-(2-hydroxy-propionylamino)-phenoxy]-benzamide] | – |
| < 100 nM | NC(=O)c1c(Nc2ccc(I)cc2F)cc(F)cc1Oc1ccc2oc(=O)[nH]c2c1 [Example 4.1, 4-Fluoro-2-(2-fluoro-4-iodo-phenylamino)-6-(2-oxo-2,3-dihydro-benzooxazol-5-yloxy)-benzamide] | IC50 (MEK1): < 100 nM |
